Results published in article PMC10836395, “Investigation of how gate residues in the main channel affect the catalytic activity of Scytalidium thermophilum catalase” (Acta Crystallographica. Section D, Structural Biology, 2024).
Like-named read-outs stand apart in the source and are kept apart here. Marks after values point to notes of the source that are not given here.

How the values were obtained:
CATPO T188A variant [1] = molecular target: T1, CATPO T188A variant (Scytalidium thermophilum (Humicola insolens), UniProt M4GGR5, T207A); test: biochemical
CATPO E484D variant [2] = molecular target: T2, CATPO E484D variant (Scytalidium thermophilum (Humicola insolens), UniProt M4GGR5, E503D); test: biochemical
CATPO T188D variant [3] = molecular target: T3, CATPO T188D variant (Scytalidium thermophilum (Humicola insolens), UniProt M4GGR5, T207D); test: biochemical
CATPO E484A variant [4] = molecular target: T4, CATPO E484A variant (Scytalidium thermophilum (Humicola insolens), UniProt M4GGR5, E503A); test: biochemical
CATPO [5] = molecular target: T5, CATPO (Scytalidium thermophilum (Humicola insolens), UniProt M4GGR5); test: Inhibition of catechol oxidation; assay type: biochemical; conditions: for inhibition type: catechol oxidase activity of wild-type CATPO, Lineweaver–Burk
CATPO T188F variant [6] = molecular target: T6, CATPO T188F variant (Scytalidium thermophilum (Humicola insolens), UniProt M4GGR5, T207F); test: biochemical
CATPO T188I variant [7] = molecular target: T7, CATPO T188I variant (Scytalidium thermophilum (Humicola insolens), UniProt M4GGR5, T207I); test: biochemical
CATPO E484I variant [8] = molecular target: T8, CATPO E484I variant (Scytalidium thermophilum (Humicola insolens), UniProt M4GGR5, E503I); test: biochemical
CATPO T188I variant [9] = molecular target: T7, CATPO T188I variant; assay type: biochemical; conditions: for K m: pH 7.0 (ABTS pH 5.0), 60°C
CATPO T188D variant [10] = molecular target: T3, CATPO T188D variant; assay type: biochemical; conditions: for K m: pH 7.0 (ABTS pH 5.0), 60°C
CATPO E484A variant [11] = molecular target: T4, CATPO E484A variant; test: Substrate-specificity analysis of the phenol oxidase activity; assay type: biochemical; conditions: for K m: pH 7.0 (ABTS pH 5.0), 60°C
CATPO E484I variant [12] = molecular target: T8, CATPO E484I variant; assay type: biochemical; conditions: for K m: pH 7.0 (ABTS pH 5.0), 60°C
CATPO E484D variant [13] = molecular target: T2, CATPO E484D variant; assay type: biochemical; conditions: for K m: pH 7.0 (ABTS pH 5.0), 60°C
CATPO T188F variant [14] = molecular target: T6, CATPO T188F variant; assay type: biochemical; conditions: for K m: pH 7.0 (ABTS pH 5.0), 60°C
CATPO T188A variant [15] = molecular target: T1, CATPO T188A variant; assay type: biochemical; conditions: for K m: pH 7.0 (ABTS pH 5.0), 60°C
CATPO [16] = molecular target: T5, CATPO; test: Substrate-specificity analysis of the phenol oxidase activity; assay type: biochemical
[17] = catechol oxidation by CATPO, catechol 1 to 100 mM, read-out: K i

T6 sequence (M4GGR5 entry or part of it T207F): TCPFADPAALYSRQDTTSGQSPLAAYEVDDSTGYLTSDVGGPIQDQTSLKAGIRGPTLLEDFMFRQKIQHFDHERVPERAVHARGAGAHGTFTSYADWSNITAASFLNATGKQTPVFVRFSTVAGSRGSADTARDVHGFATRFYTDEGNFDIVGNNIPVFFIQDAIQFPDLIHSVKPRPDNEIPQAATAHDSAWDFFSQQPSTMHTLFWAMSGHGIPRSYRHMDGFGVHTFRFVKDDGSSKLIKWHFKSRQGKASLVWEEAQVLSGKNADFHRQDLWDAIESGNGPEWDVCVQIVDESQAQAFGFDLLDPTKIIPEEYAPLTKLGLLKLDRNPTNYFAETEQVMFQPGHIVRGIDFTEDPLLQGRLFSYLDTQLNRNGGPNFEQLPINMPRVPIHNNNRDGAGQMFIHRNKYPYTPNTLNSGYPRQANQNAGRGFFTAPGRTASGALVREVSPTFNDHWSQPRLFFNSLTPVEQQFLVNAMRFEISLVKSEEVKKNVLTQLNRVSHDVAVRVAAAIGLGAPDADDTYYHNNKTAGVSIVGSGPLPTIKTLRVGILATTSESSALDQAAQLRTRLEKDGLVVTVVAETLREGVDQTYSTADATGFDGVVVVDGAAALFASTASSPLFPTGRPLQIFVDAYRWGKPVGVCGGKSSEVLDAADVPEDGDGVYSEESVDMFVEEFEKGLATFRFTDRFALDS
T5 sequence (M4GGR5 entry or part of it): as the sequence (M4GGR5 entry or part of it T207F) above
T8 sequence (M4GGR5 entry or part of it E503I): as the sequence (M4GGR5 entry or part of it T207F) above
T4 sequence (M4GGR5 entry or part of it E503A): as the sequence (M4GGR5 entry or part of it T207F) above
T2 sequence (M4GGR5 entry or part of it E503D): as the sequence (M4GGR5 entry or part of it T207F) above
T3 sequence (M4GGR5 entry or part of it T207D): as the sequence (M4GGR5 entry or part of it T207F) above
T1 sequence (M4GGR5 entry or part of it T207A): as the sequence (M4GGR5 entry or part of it T207F) above
T7 sequence (M4GGR5 entry or part of it T207I): as the sequence (M4GGR5 entry or part of it T207F) above

Row | SMILES | Ki (CATPO T188A variant [1]) | Ki (CATPO E484D variant [2]) | Ki (CATPO T188D variant [3]) | Ki (CATPO E484A variant [4]) | inhibition type (CATPO [5]) | Ki (CATPO T188F variant [6]) | Ki (CATPO T188I variant [7]) | Ki (CATPO E484I variant [8]) | V max (CATPO T188I variant [9]) | k cat/K m (CATPO T188I variant [9]) | K m (CATPO T188I variant [9]) | V max (CATPO T188D variant [10]) | k cat/K m (CATPO T188D variant [10]) | K m (CATPO T188D variant [10]) | Ki (CATPO [5]; [17]) | V max (CATPO E484A variant [11]) | k cat/K m (CATPO E484A variant [11]) | K m (CATPO E484A variant [11]) | V max (CATPO E484I variant [12]) | k cat/K m (CATPO E484I variant [12]) | further results
1 | O=C(NO)c1ccccc1O [Salicylhydroxamic acid, salicylhydroxamic acid] | 2.2 ± 0.4 mM | 2 ± 0.4 mM | 5.4 ± 0.4 mM | 6.7 ± 1.1 mM | competitive | 5.5 ± 0.7 mM | 5.4 ± 0.9 mM | 5.4 ± 0.5 mM | – | – | – | – | – | – | – | – | – | – | – | – | Ki (CATPO [5]): 2.2 ± 0.4 mM
2 | Cc1ccc(O)c(O)c1 [4-Methylcatechol, 4-methylcatechol] | 1.5 ± 0.4 mM | 1.5 ± 0.1 mM | 50 ± 2.5 mM | 55 ± 5 mM | – | 45 ± 4.8 mM | 40 ± 2.4 mM | 46 ± 2 mM | 43000 ± 900 mM/min | 6600 ± 600 s^−1 M^−1 (×10^2) | 34 ± 1.2 mM | 28000 ± 970 mM/min | 7620 ± 100 s^−1 M^−1 (×10^2) | 30 ± 0.1 mM | 1.5 ± 0.4 mM | 75500 ± 550 mM/min | 10100 ± 90 s^−1 M^−1 (×10^2) | 33 ± 1.0 mM | 41500 ± 840 mM/min | 5480 ± 80 s^−1 M^−1 (×10^2) | K m (CATPO E484I variant [12]): 35 ± 0.7 mM; V max (CATPO E484D variant [13]): 20600 ± 712 mM/min; k cat/K m (CATPO E484D variant [13]): 1500 ± 88 s^−1 M^−1 (×10^2); K m (CATPO E484D variant [13]): 36 ± 0.1 mM; V max (CATPO T188F variant [14]): 54150 ± 800 mM/min; k cat/K m (CATPO T188F variant [14]): 6570 ± 560 s^−1 M^−1 (×10^2); K m (CATPO T188F variant [14]): 32 ± 1.0 mM; V max (CATPO T188A variant [15]): 21000 ± 880 mM/min; k cat/K m (CATPO T188A variant [15]): 1640 ± 210 s^−1 M^−1 (×10^2); K m (CATPO T188A variant [15]): 35 ± 1.0 mM; V max (CATPO [16]): 21320 ± 845 mM/min; k cat/K m (CATPO [16]): 1580 ± 110 s^−1 M^−1 (×10^2)
3 | Nc1nc[nH]n1 [3TR, 3-amino-1,2,4-triazole] | 20 ± 0.2 mM | 22 ± 3.2 mM | 41 ± 4.1 mM | 65 ± 5.5 mM | competitive | 54 ± 4.5 mM | 42 ± 4 mM | 40 ± 4 mM | – | – | – | – | – | – | 21 ± 1 mM | – | – | – | – | – | –
4 | CCn1c(=NN=c2sc3cc(S(=O)(=O)O)ccc3n2CC)sc2cc(S(=O)(=O)O)ccc21 [ABTS, 2,2′-azino-bis(3-ethylbenzthiazoline-6-sulfonic acid)] | – | – | – | – | – | – | – | – | 6000 ± 100 mM/min | 190 ± 18 s^−1 M^−1 (×10^2) | 48 ± 0.7 mM | 4000 ± 88 mM/min | 200 ± 25 s^−1 M^−1 (×10^2) | 55 ± 1.0 mM | 11 ± 1 mM | 8600 ± 220 mM/min | 300 ± 10 s^−1 M^−1 (×10^2) | 46 ± 1.0 mM | 4600 ± 98 mM/min | 170 ± 10 s^−1 M^−1 (×10^2) | Ki (CATPO T188A variant [1]; catechol oxidation by T188A, read-out: K i): 12 ± 1.2 mM; Ki (CATPO E484D variant [2]; catechol oxidation by E484D, read-out: K i): 12 ± 1.2 mM; Ki (CATPO T188D variant [3]; catechol oxidation by T188D, read-out: K i): 81 ± 1 mM; Ki (CATPO E484A variant [4]; catechol oxidation by E484A, read-out: K i): 96 ± 5.4 mM; Ki (CATPO T188F variant [6]; catechol oxidation by T188F, read-out: K i): 84 ± 7 mM; K m (CATPO E484I variant [12]): 50 ± 0.5 mM; V max (CATPO E484D variant [13]): 5500 ± 132 mM/min; k cat/K m (CATPO E484D variant [13]): 100 ± 10 s^−1 M^−1 (×10^2); K m (CATPO E484D variant [13]): 53 ± 1.0 mM; V max (CATPO T188F variant [14]): 6600 ± 120 mM/min; k cat/K m (CATPO T188F variant [14]): 270 ± 25 s^−1 M^−1 (×10^2); K m (CATPO T188F variant [14]): 45 ± 0.5 mM; V max (CATPO T188A variant [15]): 5000 ± 100 mM/min; k cat/K m (CATPO T188A variant [15]): 90 ± 5 s^−1 M^−1 (×10^2); K m (CATPO T188A variant [15]): 52 ± 0.8 mM; Ki (CATPO E484I variant [8]; catechol oxidation by E484I, read-out: K i): 81 ± 8 mM; V max (CATPO [16]): 5620 ± 250 mM/min; k cat/K m (CATPO [16]): 590 ± 20 s^−1 M^−1 (×10^2); K m (CATPO [16]; pH 7.0 (ABTS pH 5.0), 60°C): 50 ± 1.5 mM
